Results on 12 compounds are retold here after patent publication US20250163104A1, “MACROCYCLIC IMMUNOMODULATORS” (priority 2021, published 2025).

Where a SMILES comes first, the peptide text is derived from it. Bridges are numbered along the chain shown (N, C = ends). [ ]: non-standard residue; d: D form. The star is where a group is joined. Phe(4-COOH) = N[C@@H](Cc1ccc(C(=O)O)cc1)C(=O)O; Bip = N[C@@H](Cc1ccc(-c2ccccc2)cc1)C(=O)O; Phe(3-Me) = Cc1cccc(C[C@H](N)C(=O)O)c1; Cha = N[C@@H](CC1CCCCC1)C(=O)O; Carboxymethyl = O=C(O)C*; Nle = CCCC[C@H](N)C(=O)O; Orn = NCCC[C@H](N)C(=O)O; Dab = NCC[C@H](N)C(=O)O; Nva = CCC[C@H](N)C(=O)O; Abu = CC[C@H](N)C(=O)O; Propargyl = C#CC*

The target in this assay is T1, human PD-1 / PD-L1-Ig binding on Jurkat cell line over-expressing human PD-1 (Jurkat-PD-1) (Homo sapiens, UniProt Q15116).
T1 construct: expressed in transfected cells; host or cells: Jurkat
T1 sequence (Q15116 25-288): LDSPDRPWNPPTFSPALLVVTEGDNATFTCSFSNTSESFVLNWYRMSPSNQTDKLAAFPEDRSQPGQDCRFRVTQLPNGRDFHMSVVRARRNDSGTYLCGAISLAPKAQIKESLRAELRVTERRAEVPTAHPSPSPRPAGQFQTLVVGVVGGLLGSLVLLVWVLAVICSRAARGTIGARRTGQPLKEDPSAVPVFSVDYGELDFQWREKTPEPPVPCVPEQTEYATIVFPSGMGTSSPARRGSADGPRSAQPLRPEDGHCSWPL
The assay can be described thus: Jurkat-PD-1 Cell Binding High-Content Screening Assay (CBA). Format: cell-based. The settings on record: Jurkat-PD-1 cells, PE-labeled PD-L1-Ig 20 nM final; read-out: Jurkat HPD1_PDL1 IC50. The gist of the method:
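Binding of fluorescent PD-L1-Ig (phycoerythrin linked via the Ig tag, 20 nM final) to PD-1-overexpressing Jurkat cells was imaged after a 2 h, 37° C compound pretreatment and 1 hour ligand incubation.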
On to `C#CCOc1ccc(C[C@@H]2NC(=O)[C@H](Cc3cccc(C)c3)NC(=O)[C@H](CC(=O)O)NC(=O)[C@H](Cc3ccc(OCC(=O)O)cc3)NC(=O)[C@H](CCC)NC(=O)CSC[C@@H](C(=O)N[C@@H](CCN)C(N)=O)NC(=O)[C@H](CCC(=O)O)NC(=O)[C@H](C(C)C)NC(=O)[C@H](CC3CCCCC3)NC(=O)[C@H](CCN)NC(=O)[C@@H](CC(C)C)NC(=O)[C@H](CCCN)NC(=O)[C@H](Cc3ccc(OCC(=O)O)cc3)NC(=O)[C@H](Cc3ccc(-c4ccccc4)cc3)NC2=O)cc1` [Compound 1832] ({CH2CO}-[Nva]Y(Carboxymethyl)D[Phe(3-Me)]Y(Propargyl)[Bip]Y(Carboxymethyl)[Orn][dL][Dab][Cha]VEC[Dab]-NH2; thioether N-14), for which the IC50 was found to be 2.6 nM. In the case of `C#CCOc1ccc(C[C@@H]2NC(=O)[C@H](Cc3cccc(C)c3)NC(=O)[C@H](CC(=O)O)NC(=O)[C@H](Cc3ccc(OCC(=O)O)cc3)NC(=O)[C@H](CCCC)NC(=O)CSC[C@@H](C(=O)N[C@@H](CCN)C(N)=O)NC(=O)[C@H](CCC(=O)O)NC(=O)[C@H](C(C)C)NC(=O)[C@H](CC3CCCCC3)NC(=O)[C@H](CCN)NC(=O)[C@@H](CC(C)C)NC(=O)[C@H](CCCN)NC(=O)[C@H](Cc3ccc(OCC(=O)O)cc3)NC(=O)[C@H](Cc3ccc(-c4ccccc4)cc3)NC2=O)cc1` [Compound 1833] ({CH2CO}-[Nle]Y(Carboxymethyl)D[Phe(3-Me)]Y(Propargyl)[Bip]Y(Carboxymethyl)[Orn][dL][Dab][Cha]VEC[Dab]-NH2; thioether N-14), the IC50 stood at 1.5 nM. To `C#CCOc1ccc(C[C@@H]2NC(=O)[C@H](Cc3cccc(C)c3)NC(=O)[C@H](CC(=O)O)NC(=O)[C@H](Cc3ccc(OCC(=O)O)cc3)NC(=O)[C@H](Cc3ccc(OCC(=O)O)cc3)NC(=O)CSC[C@@H](C(=O)N[C@@H](CCN)C(N)=O)NC(=O)[C@H](CCC(=O)O)NC(=O)[C@H](C(C)C)NC(=O)[C@H](CC3CCCCC3)NC(=O)[C@H](CCN)NC(=O)[C@@H](CC(C)C)NC(=O)[C@H](CCCN)NC(=O)[C@H](Cc3ccc(OCC(=O)O)cc3)NC(=O)[C@H](Cc3ccc(-c4ccccc4)cc3)NC2=O)cc1` [Compound 1834] ({CH2CO}-Y(Carboxymethyl)Y(Carboxymethyl)D[Phe(3-Me)]Y(Propargyl)[Bip]Y(Carboxymethyl)[Orn][dL][Dab][Cha]VEC[Dab]-NH2; thioether N-14) belongs 3.3 nM.

As to `C#CCOc1ccc(C[C@@H]2NC(=O)[C@H](Cc3ccc(-c4ccccc4)cc3)NC(=O)[C@H](Cc3ccc(C(=O)O)cc3)NC(=O)[C@H](Cc3cccc(C)c3)NC(=O)[C@H](CC(=O)O)NC(=O)[C@H](Cc3ccc(C(=O)O)cc3)NC(=O)[C@H](CCCC)NC(=O)CSC[C@@H](C(=O)N[C@@H](CCN)C(N)=O)NC(=O)[C@H](CCC(=O)O)NC(=O)[C@H](C(C)C)NC(=O)[C@H](CC3CCCCC3)NC(=O)[C@H](CCN)NC(=O)[C@@H](CC(C)C)NC(=O)[C@H](CCCN)NC2=O)cc1` [Compound 1835] ({CH2CO}-[Nle][Phe(4-COOH)]D[Phe(3-Me)][Phe(4-COOH)][Bip]Y(Propargyl)[Orn][dL][Dab][Cha]VEC[Dab]-NH2; thioether N-14), the IC50 is 6.4 nM. For the compound `C#CCOc1ccc(C[C@@H]2NC(=O)[C@H](Cc3ccc(-c4ccccc4)cc3)NC(=O)[C@H](Cc3ccc(OCC(=O)O)cc3)NC(=O)[C@H](Cc3cccc(C)c3)NC(=O)[C@H](CC(=O)O)NC(=O)[C@H](Cc3ccc(OCC(=O)O)cc3)NC(=O)[C@H]([C@@H](C)O)NC(=O)CSC[C@@H](C(=O)N[C@@H](CCN)C(N)=O)NC(=O)[C@H](CCC(=O)O)NC(=O)[C@H](C(C)C)NC(=O)[C@H](CC3CCCCC3)NC(=O)[C@H](CCN)NC(=O)[C@@H](CC(C)C)NC(=O)[C@H](CCCN)NC2=O)cc1` [Compound 1836] ({CH2CO}-TY(Carboxymethyl)D[Phe(3-Me)]Y(Carboxymethyl)[Bip]Y(Propargyl)[Orn][dL][Dab][Cha]VEC[Dab]-NH2; thioether N-14), the IC50 turned out to be 7.2 nM. With `C#CCOc1ccc(C[C@@H]2NC(=O)[C@H](Cc3ccc(-c4ccccc4)cc3)NC(=O)[C@H](Cc3ccc(OCC(=O)O)cc3)NC(=O)[C@H](Cc3cccc(C)c3)NC(=O)[C@H](CC(=O)O)NC(=O)[C@H](Cc3ccc(OCC(=O)O)cc3)NC(=O)[C@H](CCC)NC(=O)CSC[C@@H](C(=O)N[C@@H](CCN)C(N)=O)NC(=O)[C@H](CCC(=O)O)NC(=O)[C@H](C(C)C)NC(=O)[C@H](CC3CCCCC3)NC(=O)[C@H](CCN)NC(=O)[C@@H](CC(C)C)NC(=O)[C@H](CCCN)NC2=O)cc1` [Compound 1837] ({CH2CO}-[Nva]Y(Carboxymethyl)D[Phe(3-Me)]Y(Carboxymethyl)[Bip]Y(Propargyl)[Orn][dL][Dab][Cha]VEC[Dab]-NH2; thioether N-14), the IC50 turned out to be 8.3 nM. With `C#CCOc1ccc(C[C@@H]2NC(=O)[C@H](Cc3ccc(-c4ccccc4)cc3)NC(=O)[C@H](Cc3ccc(OCC(=O)O)cc3)NC(=O)[C@H](Cc3cccc(C)c3)NC(=O)[C@H](CC(=O)O)NC(=O)[C@H](Cc3ccc(OCC(=O)O)cc3)NC(=O)[C@H](CCCC)NC(=O)CSC[C@@H](C(=O)N[C@@H](CCN)C(N)=O)NC(=O)[C@H](CCC(=O)O)NC(=O)[C@H](C(C)C)NC(=O)[C@H](CC3CCCCC3)NC(=O)[C@H](CCN)NC(=O)[C@@H](CC(C)C)NC(=O)[C@H](CCCN)NC2=O)cc1` [Compound 1838] ({CH2CO}-[Nle]Y(Carboxymethyl)D[Phe(3-Me)]Y(Carboxymethyl)[Bip]Y(Propargyl)[Orn][dL][Dab][Cha]VEC[Dab]-NH2; thioether N-14), the IC50 came to 7.6 nM. For `C#CCOc1ccc(C[C@@H]2NC(=O)[C@H](Cc3ccc(-c4ccccc4)cc3)NC(=O)[C@H](Cc3ccc(C(=O)O)cc3)NC(=O)[C@H](Cc3cccc(C)c3)NC(=O)[C@H](CC(=O)O)NC(=O)[C@H](Cc3ccc(C(=O)O)cc3)NC(=O)[C@H](CC)NC(=O)CSC[C@@H](C(=O)N[C@@H](CCN)C(N)=O)NC(=O)[C@H](CCC(=O)O)NC(=O)[C@H](C(C)C)NC(=O)[C@H](CC3CCCCC3)NC(=O)[C@H](CCN)NC(=O)[C@@H](CC(C)C)NC(=O)[C@H](CCCN)NC2=O)cc1` [Compound 1839] ({CH2CO}-[Abu][Phe(4-COOH)]D[Phe(3-Me)][Phe(4-COOH)][Bip]Y(Propargyl)[Orn][dL][Dab][Cha]VEC[Dab]-NH2; thioether N-14), the IC50 came to 2.3 nM. Consider `C#CCOc1ccc(C[C@@H]2NC(=O)[C@H](Cc3cccc(C)c3)NC(=O)[C@H](CC(=O)O)NC(=O)[C@H](Cc3ccc(OCC(=O)O)cc3)NC(=O)[C@H](CC)NC(=O)CSC[C@@H](C(=O)N[C@@H](CCN)C(N)=O)NC(=O)[C@H](CCC(=O)O)NC(=O)[C@H](C(C)C)NC(=O)[C@H](CC3CCCCC3)NC(=O)[C@H](CCN)NC(=O)[C@@H](CC(C)C)NC(=O)[C@H](CCCN)NC(=O)[C@H](Cc3ccc(OCC(=O)O)cc3)NC(=O)[C@H](Cc3ccc(-c4ccccc4)cc3)NC2=O)cc1` [Compound 1840] ({CH2CO}-[Abu]Y(Carboxymethyl)D[Phe(3-Me)]Y(Propargyl)[Bip]Y(Carboxymethyl)[Orn][dL][Dab][Cha]VEC[Dab]-NH2; thioether N-14), for which the IC50 was 3.4 nM. As to `C#CCOc1ccc(C[C@@H]2NC(=O)[C@H](Cc3cccc(C)c3)NC(=O)[C@H](CC(=O)O)NC(=O)[C@H](Cc3ccc(C(=O)O)cc3)NC(=O)[C@H]([C@@H](C)O)NC(=O)CSC[C@@H](C(=O)N[C@@H](CCN)C(N)=O)NC(=O)[C@H](CCC(=O)O)NC(=O)[C@H](C(C)C)NC(=O)[C@H](CC3CCCCC3)NC(=O)[C@H](CCN)NC(=O)[C@@H](CC(C)C)NC(=O)[C@H](CCCN)NC(=O)[C@H](Cc3ccc(C(=O)O)cc3)NC(=O)[C@H](Cc3ccc(-c4ccccc4)cc3)NC2=O)cc1` [Compound 1841] ({CH2CO}-T[Phe(4-COOH)]D[Phe(3-Me)]Y(Propargyl)[Bip][Phe(4-COOH)][Orn][dL][Dab][Cha]VEC[Dab]-NH2; thioether N-14), the concentration for half-maximal inhibition (IC50) is 3.9 nM. Take `C#CCOc1ccc(C[C@@H]2NC(=O)[C@H](Cc3cccc(C)c3)NC(=O)[C@H](CC(=O)O)NC(=O)[C@H](Cc3ccc(C(=O)O)cc3)NC(=O)[C@H](CCCC)NC(=O)CSC[C@@H](C(=O)N[C@@H](CCN)C(N)=O)NC(=O)[C@H](CCC(=O)O)NC(=O)[C@H](C(C)C)NC(=O)[C@H](CC3CCCCC3)NC(=O)[C@H](CCN)NC(=O)[C@@H](CC(C)C)NC(=O)[C@H](CCCN)NC(=O)[C@H](Cc3ccc(C(=O)O)cc3)NC(=O)[C@H](Cc3ccc(-c4ccccc4)cc3)NC2=O)cc1` [Compound 1842] ({CH2CO}-[Nle][Phe(4-COOH)]D[Phe(3-Me)]Y(Propargyl)[Bip][Phe(4-COOH)][Orn][dL][Dab][Cha]VEC[Dab]-NH2; thioether N-14): the IC50 came out at 1.2 nM.

Take `C#CCOc1ccc(C[C@@H]2NC(=O)[C@H](Cc3ccc(-c4ccccc4)cc3)NC(=O)[C@H](Cc3ccc(OCC(=O)O)cc3)NC(=O)[C@H](Cc3cccc(C)c3)NC(=O)[C@H](CC(=O)O)NC(=O)[C@H](Cc3ccc(OCC(=O)O)cc3)NC(=O)[C@H](CC)NC(=O)CSC[C@@H](C(=O)N[C@@H](CCN)C(N)=O)NC(=O)[C@H](CCC(=O)O)NC(=O)[C@H](C(C)C)NC(=O)[C@H](CC3CCCCC3)NC(=O)[C@H](CCN)NC(=O)[C@@H](CC(C)C)NC(=O)[C@H](CCCN)NC2=O)cc1` [Compound 1843] ({CH2CO}-[Abu]Y(Carboxymethyl)D[Phe(3-Me)]Y(Carboxymethyl)[Bip]Y(Propargyl)[Orn][dL][Dab][Cha]VEC[Dab]-NH2; thioether N-14): the IC50 worked out at 8.3 nM.

As a reminder, the IC50 is the concentration needed to halve the response being measured.
